What is called IC50 is the concentration needed to halve the response being measured.

We go through 18 molecules from patent US6046217A, “2,3,5-trisubstituted pyridines as inhibitors of cyclooxygenase-2” (Merck Frosst Canada & Co., priority 1998, dated 2000).

One experiment addresses COX-1 (Homo sapiens, UniProt P23219). Description: Assay of COX-1 activity from U937 cell microsomes (PGE2). Format: biochemical. Details: Assay of COX-1 Activity from U937 Cell Microsomes; endogenous in cells; host or cells: U937 cells, 100,000 x g microsomal pellet. To be noted: U-937 cell microsomes, 15 min preincubation; read-out: COX-1 (IC50 mM) U-937. The procedure:
U 937 cells are pelleted by centrifugation at 500×g for 5 min and washed once with phosphate-buffered saline and repelleted. Cells are resuspended in homogenization buffer consisting of 0.1 M Tris-HCl, pH 7.4, 10 mM EDTA, […] leupeptin, 2 μg/ml soybean trypsin inhibitor, 2 μg/ml aprotinin and 1 mM phenyl methyl sulfonyl fluoride. The cell suspension is sonicated 4 times for 10 sec and is centrifuged at 10,000×g for 10 min at 4° C. The supernatant is centrifuged at 100,000×g for 1 hr at 4° C. The 100,000×g microsomal pellet is resuspended in 0.1 M Tris-HCl, pH 7.4, 10 mM EDTA to approximately 7 mg protein/ml and stored at -80° C.
Microsomal preparations are thawed immediately prior to use, subjected to a brief sonication, and then diluted to a protein concentration of 125 μg/ml in 0.1 M Tris-HCl buffer, pH 7.4 containing 10 mM EDTA, 0.5 mM phenol, 1 mM reduced glutathione and 1 μM hematin. Assays are performed in duplicate in a final volume of 250 μl. Initially, 5 μl of DMSO vehicle or drug in DMSO are added to 20 μl of 0.1 M Tris-HCl buffer, pH 7.4 containing 10 mM EDTA in wells of a 96-deepwell polypropylene titre plate. 200 μl of the microsomal preparation are then added and pre-incubated for 15 min at room temperature before addition of 25 μl of […] arachidonic acid in […] Tris-HCl and 10 mM EDTA, pH 7.4. Samples are incubated for 40 min at room temperature and the reaction is stopped by the addition of 25 μl of 1 N HCl. Samples are neutralized with 25 μl of 1 N NaOH prior to quantitation of PGE2 content by radioimmunoassay (Dupont-NEN or Amersham assay kits). Cyclooxygenase activity is defined as the difference between PGE2 levels in samples incubated in the presence of arachidonic acid and ethanol vehicle.
In the assay, inhibition is determined by measuring the amount of prostaglandin E2 (PGE2) synthesized in the presence of arachidonic acid, cyclooxygenase-1 or cyclooxygenase-2 and a putative inhibitor.

Experiment [1] addresses T1, COX-2 (Homo sapiens, UniProt P35354).
T1 sequence (P35354 18-604): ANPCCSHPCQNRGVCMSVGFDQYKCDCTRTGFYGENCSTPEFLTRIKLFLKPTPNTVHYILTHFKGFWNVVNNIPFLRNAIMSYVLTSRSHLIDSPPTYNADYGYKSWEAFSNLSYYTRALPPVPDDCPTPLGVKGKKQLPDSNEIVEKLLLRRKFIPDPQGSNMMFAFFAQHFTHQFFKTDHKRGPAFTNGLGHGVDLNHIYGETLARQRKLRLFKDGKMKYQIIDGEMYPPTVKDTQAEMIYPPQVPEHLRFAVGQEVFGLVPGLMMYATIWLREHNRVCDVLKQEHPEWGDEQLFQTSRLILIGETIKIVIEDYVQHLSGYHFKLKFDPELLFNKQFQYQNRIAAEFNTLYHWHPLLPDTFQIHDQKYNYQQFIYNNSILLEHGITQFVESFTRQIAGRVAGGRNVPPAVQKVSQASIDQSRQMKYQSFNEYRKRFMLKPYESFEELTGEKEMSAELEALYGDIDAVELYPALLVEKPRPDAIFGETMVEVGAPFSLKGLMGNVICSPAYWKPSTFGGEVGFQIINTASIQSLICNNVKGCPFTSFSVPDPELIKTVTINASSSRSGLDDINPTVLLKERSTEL
Description: cell-based.

In experiment [2] the target is T1, COX-2. Description: cell-based. To be noted: human whole blood, LPS-induced PGE2, 24 h. An excerpt: As well, platelets in whole blood contain a large amount of the COX-1 enzyme. Immediately following blood clotting, platelets are activated through a thrombin-mediated mechanism. This reaction results in the production of thromboxane B2 (TxB2) via activation of COX-1. Thus, the effect of test compounds on TxB2 levels following blood clotting can be examined and used as an index for COX-1 activity. Therefore, the degree of selectivity by the test compound can be determined by measuring the levels of PGE2 after LPS induction (COX-2) and TxB2 following blood clotting (COX-1) in the same assay.
Fresh blood is collected in heparinized tubes by venipuncture from both male and female volunteers. The subjects have no apparent inflammatory conditions and have not taken any NSAIDs for at least 7 days prior to blood collection. Plasma is immediately obtained from a 2mL blood aliquot to use as blank (basal levels of PGE2). The remaining blood is incubated with LPS (100 μg/ml final concentration, Sigma Chem, #L-2630 from E. coli; diluted in 0.1% BSA (Phosphate buffered saline) for 5 minutes at room temperature. Five hundred […] aliquots of blood are incubated with either 2 μL of vehicle (DMSO) or 2 μL of a test compound at final concentrations varying from 10 nM to 30 μM for 24 hours at 37° C. At the end of the incubation, the blood is centrifuged at 12,000×g for 5 minutes to obtain plasma. A 100 μL aliquot of plasma is mixed with 400 μL of methanol for protein precipitation. The supernatant is obtained and is assayed for PGE2 using a radioimmunoassay kit (Amersham, RPA#530) after conversion of PGE2 to its methyl oximate derivative according to the manufacturer's procedure. […]

Where [3] appears, read: CHO[hCOX-2] cells, 10 μM AA, 15 min preincubation, read-out: COX-2 (IC50 mM) CHO.

Read-outs that look alike come from different tables or passages of the source.

COX-1, sequence (P23219 24-599): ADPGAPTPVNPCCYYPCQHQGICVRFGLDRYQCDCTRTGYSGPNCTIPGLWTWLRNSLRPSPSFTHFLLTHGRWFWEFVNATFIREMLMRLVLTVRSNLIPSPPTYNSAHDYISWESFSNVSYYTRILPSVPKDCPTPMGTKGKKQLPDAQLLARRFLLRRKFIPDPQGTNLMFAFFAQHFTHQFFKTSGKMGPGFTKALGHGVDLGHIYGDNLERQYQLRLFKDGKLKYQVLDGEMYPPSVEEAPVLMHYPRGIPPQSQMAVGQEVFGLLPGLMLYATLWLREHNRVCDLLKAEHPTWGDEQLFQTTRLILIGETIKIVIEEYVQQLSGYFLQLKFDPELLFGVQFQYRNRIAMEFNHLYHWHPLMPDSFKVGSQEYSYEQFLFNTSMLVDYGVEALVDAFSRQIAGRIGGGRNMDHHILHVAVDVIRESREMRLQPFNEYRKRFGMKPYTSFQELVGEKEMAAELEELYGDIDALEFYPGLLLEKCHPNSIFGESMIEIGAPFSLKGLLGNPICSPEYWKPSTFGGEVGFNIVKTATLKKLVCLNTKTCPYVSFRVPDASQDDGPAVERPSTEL

For `CCC(C)(O)CSc1ncc(C(F)(F)F)cc1-c1ccc(S(C)(=O)=O)cc1` (single isomer, unassigned; (+)) [Example 45, (+)-2-(2-Hydroxy-2-methyl-1-thiobutyloxy)-3-(4-methylsulfonyl)phenyl-5-trifluoromethylpyridine], the IC50 at COX-1 was 0.003 to 0.01 mM.
In the case of `CCC(O)(CC)COc1ncc(Cl)cc1-c1ccc(S(C)(=O)=O)cc1` [Example 9, 5-Chloro-2-(2-hydroxy-2-ethyl-1-butyloxy)-3-(4-methylsulfonyl)phenylpyridine], the results for the concentration for half-maximal inhibition (IC50) on COX-2 [1] (setting [3]), at COX-2 [2] (read-out: COX-2 (IC50 mM) HWB) and on COX-1 were 0.07 µM, 0.0016 mM and over 0.01 mM, respectively.
The corresponding values for `C[C@@H](O)[C@@H](C)Oc1ncc(Cl)cc1-c1ccc(S(C)(=O)=O)cc1` [Example 24, 5-Chloro-2-((2R,3R)-3-hydroxy-2-butyloxy)-3-(4-methylsulfonyl)phenylpyridine] are 0.07 µM, 0.0015 mM and over 0.01 mM.
The corresponding values for `C[C@@]1(O)CCCC[C@@H]1Oc1ncc(C(F)(F)F)cc1-c1ccc(S(C)(=O)=O)cc1` (relative stereo) [Example 37, 2-(cis-2-Hydroxy-2-methylcyclohexyloxy)-3-(4-methylsulfonyl)phenyl-5-trifluoromethylpyridine] are 0.57 µM, 0.0065 mM and over 0.01 mM.
The corresponding values for `CCC(O)(CC)CSc1ncc(Cl)cc1-c1ccc(S(C)(=O)=O)cc1` [Example 48, 5-Chloro-2-(2-ethyl-2-hydroxy-1-thiobutyloxy)-3-(4-methylsulfonyl)phenylpyridine] are 0.07 µM, 0.0011 mM and 0.001 to 0.003 mM.
For `C[C@H](Oc1ncc(C(F)(F)F)cc1-c1ccc(S(C)(=O)=O)cc1)C(C)(C)O` [Example 16, 2-((2S)-3-Hydroxy-3-methyl-2-butyloxy)-3-(4-methylsulfonyl)phenyl-5-trifluoromethylpyridine], the figures for the half-inhibitory concentration (IC50) on COX-2 [1] (setting [3]), at COX-2 [2] (read-out: COX-2 (IC50 mM) HWB) and at COX-1 were 0.43 µM, 0.0006 mM and over 0.01 mM, respectively.
As for `CCC(C)(O)CSc1ncc(C(F)(F)F)cc1-c1ccc(S(C)(=O)=O)cc1` (single isomer, unassigned; (-)) [Example 46, (-)-2-(2-Hydroxy-2-methyl-1-thiobutyloxy)-3-(4-methylsulfonyl)phenyl-5-trifluoromethylpyridine], the IC50 at COX-1 lay within 0.001 to 0.003 mM.
Turning to `CS(=O)(=O)c1ccc(-c2cc(C(F)(F)F)cnc2OCC2(O)CCC2)cc1` [Example 12, 2-(1-Hydroxycyclobutyl)methoxy-3-(4-methylsulfonyl)phenyl-5-trifluoromethylpyridine], the values for the half-inhibitory concentration (IC50) on COX-2 [1] (setting [3]), on COX-2 [2] (read-out: COX-2 (IC50 mM) HWB) and at COX-1 were 0.05 µM, 0.0013 mM and over 0.01 mM, respectively.
The corresponding values for `CS(=O)(=O)c1ccc(-c2cc(C(F)(F)F)cnc2SCC2(O)CCCC2)cc1` [Example 49, 2-(1-Hydroxycyclopentyl)thiomethoxy-3-(4-methylsulfonyl)phenyl-5-trifluoromethylpyridine] are 0.16 µM, 0.0012 mM and 0.0003 mM.
As for `CS(=O)(=O)c1ccc(-c2cc(C(F)(F)F)cnc2O[C@H]2CCC[C@@H]2O)cc1` (relative stereo) [Example 30, 2-(trans-2-Hydroxycyclopentyloxy)-3-(4-methylsulfonyl)phenyl-5-trifluoromethylpyridine], the IC50 at COX-1 is 0.003 to 0.01 mM.
Turning to `CC(C)(O)COc1ncc(C(F)(F)F)cc1-c1ccc(S(C)(=O)=O)cc1` [Example 4, 2-(2-Hydroxy-2-methyl-1-propyloxy)-3-(4-methylsulfonyl)phenyl-5-trifluoromethylpyridine], the IC50 on COX-2 [1] (setting [3]) was 0.15 µM; at COX-2 [2] (read-out: COX-2 (IC50 mM) HWB) it was 0.0008 mM; at COX-1 it was over 0.1 mM.
The corresponding values for `C[C@@H](O)CCOc1ncc(C(F)(F)F)cc1-c1ccc(S(C)(=O)=O)cc1` [Example 39, 2-((3R)-3-Hydroxy-1-butyloxy)-3-(4-methylsulfonyl)phenyl-5-trifluoromethylpyridine] are 0.2 µM, 0.0134 mM and over 0.01 mM.
For `CC[C@]1(O)CCC[C@H]1Oc1ncc(C(F)(F)F)cc1-c1ccc(S(C)(=O)=O)cc1` (relative stereo) [Example 36, 2-(cis-2-Hydroxy-2-ethylcyclopentyloxy)-3-(4-methylsulfonyl)phenyl-5-trifluoromethylpyridine], the IC50 was 0.17 µM on COX-2 [1] (setting [3]), 0.0031 mM at COX-2 [2] (read-out: COX-2 (IC50 mM) HWB) and over 0.01 mM at COX-1.
As for `CC(CO)Sc1ncc(C(F)(F)F)cc1-c1ccc(S(C)(=O)=O)cc1` (centres unmarked) [Example 50, 2-(3-Hydroxy-2-thiopropyloxy)-3-(4-methylsulfonyl)phenyl-5-trifluoromethylpyridine], the results for the half-inhibitory concentration (IC50) against COX-2 [1], on COX-2 [2] (COX-2 (IC50 mM) HWB) and at COX-1 were 0.05 µM, 0.0005 mM and 0.001 to 0.003 mM, respectively.
On to `CCC(C)(O)COc1ncc(C(F)(F)F)cc1-c1ccc(S(C)(=O)=O)cc1` (centres unmarked) [Example 7, 2-(2-Hydroxy-2-methyl-1-butyloxy)-3-(4-methylsulfonyl)phenyl-5-trifluoromethylpyridine], for which the concentration for half-maximal inhibition (IC50) at COX-2 [1] (setting [3]) is 0.13 µM; on COX-2 [2] (read-out: COX-2 (IC50 mM) HWB), 0.001 mM; on COX-1, over 0.01 mM.
The corresponding values for `COCCOc1ncc(C(F)(F)F)cc1-c1ccc(S(C)(=O)=O)cc1` [Example 2, 2-(2-Methoxy)ethoxy-3-(4-methylsulfonyl)phenyl-5-trifluoromethylpyridine] are 0.02 µM, 0.0013 mM and 0.001 to 0.003 mM.
For the molecule `C[C@@]1(O)CCC[C@H]1Oc1ncc(C(F)(F)F)cc1-c1ccc(S(C)(=O)=O)cc1` (relative stereo) [Example 35, 2-(trans-2-Hydroxy-2-methylcyclopentyloxy)-3-(4-methylsulfonyl)phenyl-5-trifluoromethylpyridine], the IC50 on COX-1 lay in the range of 0.001 to 0.003 mM.
Turning to `CS(=O)(=O)c1ccc(-c2cc(C(F)(F)F)cnc2O[C@@H]2CCC[C@@H]2O)cc1` (relative stereo) [Example 29, 2-(cis-2-Hydroxycyclopentyloxy)-3-(4-methylsulfonyl)phenyl-5-trifluoromethylpyridine], the IC50 on COX-1 is over 0.01 mM.
